What all share (assay type): physicochemical
Data set [1] can be described thus: Particle size distribution by laser diffraction (Malvern apparatus). To be noted: for Particle size d (v, 0.05): volume diameter of 5% of the particles; for Particle size d (v, 0.1): volume diameter of 10% of the particles; for Particle size d (v, 0.5): volume diameter of 50% of the particles; for Particle size d (v, 0.9): volume diameter of 90% of the particles. The procedure: (§1) The particle size was determined by laser diffraction using a Malvern apparatus. The parameters taken into consideration were the VD in microns of 5%, 10%, 50%, and 90% of the particles expressed as d(v,0.05), d(v,0.1), d(v, 0.5), and d(v, 0.9), respectively, which correspond to the mass diameter assuming a size independent density for the particles. The Specific Surface Area (SSA) was determined by BET nitrogen adsorption using a Coulter SA3100 apparatus as a mean of three determinations.
(§2) Different batches of formoterol fumarate dihydrate were milled in a jet mill apparatus at different operating conditions in order to obtain different particle size distribution. The micronized batches were characterised in terms of particle size distribution and Specific Surface Area as reported in Example 1.

A short description of data set [2]: Specific Surface Area by BET nitrogen adsorption (Coulter SA3100). To be noted: mean of three determinations. Here is the method:
as §1, §2

Data set [3] in a line: Agglomerates after mixing with a carrier of coarser particles, detected by Near Infrared Spectrophotometer with microscope. The following applies: batch added to carrier of coarser particles; suitable time of mixing, or ten hours of mixing where agglomerates remained. Here is the method:
(§3) The various batches were then added to a carrier made of coarser particles.
as §3

Where a name gives a salt, the structure may show the parent alone.

For the molecule `COc1ccc(C[C@@H](C)NC[C@H](O)c2ccc(O)c3[nH]c(=O)ccc23)cc1` [carmoterol hydrochloride batch 5], in data set [1], the “Particle size d (v, 0.05)” value was 0.48 μm; the “Particle size d (v, 0.1)” value came out at 0.70 μm; the “Particle size d (v, 0.5)” value was determined as 1.45 μm; the “Particle size d (v, 0.9)” value came to 2.75 μm. Further, the “SSA (Specific Surface Area)” value in data set [2] is 11.91 m^2/g. Further, the “Agglomerates of the active ingredient in the formulation after mixing” value (“Agglomerates of the active ingredient” below) in data set [3] is on record as “agglomerates where still present”.

Regarding `COc1ccc(C[C@@H](C)NC[C@H](O)c2ccc(O)c3[nH]c(=O)ccc23)cc1` [carmoterol hydrochloride batch 3], in data set [1], the “Particle size d (v, 0.05)” value was 0.58 μm; the “Particle size d (v, 0.1)” value came to 0.59 μm; the “Particle size d (v, 0.5)” value turned out to be 1.32 μm; the “Particle size d (v, 0.9)” value worked out at 2.75 μm. Also, the “SSA (Specific Surface Area)” value in data set [2] is recorded as 18.11 m^2/g. Besides, the “Agglomerates of the active ingredient” value in data set [3] is reported as “agglomerates where still present”.

Regarding `COc1ccc(C[C@@H](C)NC[C@H](O)c2ccc(O)c3[nH]c(=O)ccc23)cc1` [carmoterol hydrochloride batch 1], in data set [1], the “Particle size d (v, 0.05)” value was 0.70 μm; the “Particle size d (v, 0.1)” value came to 0.94 μm; the “Particle size d (v, 0.5)” value was 2.16 μm; the “Particle size d (v, 0.9)” value is 4.34 μm. Also, in data set [2], the “SSA (Specific Surface Area)” value is 9.70 m^2/g. Besides, the “Agglomerates of the active ingredient” value in data set [3] was “no agglomerates were observed”.

Take `COc1ccc(C[C@@H](C)NC[C@H](O)c2ccc(O)c3[nH]c(=O)ccc23)cc1` [carmoterol hydrochloride batch 2]: in data set [1], the “Particle size d (v, 0.05)” value is on record as 0.67 μm; the “Particle size d (v, 0.1)” value was determined as 0.85 μm; the “Particle size d (v, 0.5)” value came out at 2.03 μm; the “Particle size d (v, 0.9)” value is on record as 4.31 μm. In data set [2], the “SSA (Specific Surface Area)” value is on record as 9.68 m^2/g. In addition, the “Agglomerates of the active ingredient” value in data set [3] is recorded as “no agglomerates were observed”.

For the molecule `COc1ccc(C[C@@H](C)NC[C@H](O)c2ccc(O)c3[nH]c(=O)ccc23)cc1` [carmoterol hydrochloride batch 4], in data set [1], the “Particle size d (v, 0.05)” value worked out at 0.55 μm; the “Particle size d (v, 0.1)” value is 0.68 μm; the “Particle size d (v, 0.5)” value is 1.58 μm; the “Particle size d (v, 0.9)” value stood at 3.40 μm. In addition, the “SSA (Specific Surface Area)” value in data set [2] came out at 10.74 m^2/g. The “Agglomerates of the active ingredient” value in data set [3] is “agglomerates where still present”.

As for `COc1ccc(C[C@@H](C)NC[C@H](O)c2ccc(O)c3[nH]c(=O)ccc23)cc1` [carmoterol hydrochloride batch 6], in data set [1], the “Particle size d (v, 0.05)” value was 0.59 μm; the “Particle size d (v, 0.1)” value stood at 0.73 μm; the “Particle size d (v, 0.5)” value is given as 1.61 μm; the “Particle size d (v, 0.9)” value was found to be 3.25 μm. The “SSA (Specific Surface Area)” value in data set [2] was determined as 11.80 m^2/g.

The values above are taken from US20100055192A1, “MICRONIZED PARTICLES OF LOW-DOSAGE STRENGTH ACTIVE AGENTS FOR POWDER FORMULATIONS FOR INHALATION” (Chiesi Farmaceutici S.p.A., priority 2007, published 2010).
